Common to all, as to experiment: cell-based
Test [1] has as its target T1, hNav1.7 (Homo sapiens, UniProt Q15858). The following applies: IonWorks Quattro; read-out: IC50 Nav1.7. In general terms: The patch-clamp technique gives a direct electrical read-out from membranes.
In test [2] the target is T2, hNav1.5 (Homo sapiens, UniProt Q14524). The following applies: IonWorks Quattro; read-out: IC50 Nav1.5.
For test [3], the target named is T3, hNav1.4 (Homo sapiens, UniProt P35499). The following applies: for IC50: IonWorks Quattro, read-out: IC50 Nav1.4; for Nav1.4/Nav1.7: ratio of IonWorks Quattro IC50 values.
A further test concerns the target hNav1.3 (Homo sapiens, UniProt Q9NY46). The following applies: IonWorks Quattro; read-out: IC50 Nav1.3.
For test [4], the target named is T1, hNav1.7. Type of test: cell-based. The following applies: PatchXpress; * = at high concentrations compound would wash off slowly or not at all; read-out: PX hNav1.7 Tonic IC50.
Test [5] has as its target T3, hNav1.4. The following applies: for IC50: PatchXpress, * = at high concentrations compound would wash off slowly or not at all, read-out: PX hNav1.4 Tonic IC50; for Nav1.4/Nav1.7: ratio of PX IC50 values.
For test [6], the target named is T2, hNav1.5. The following applies: for IC50: PatchXpress, * = at high concentrations compound would wash off slowly or not at all, read-out: PX hNav1.5 Tonic IC50.

Structures are written as SMILES. Several values for one entry are separate records, joined by “and”; a condition that tells them apart may be missing. Equal entries are not always repeated. Where two headings read alike, the source gives them in different places.

T1 sequence (Q15858 whole entry): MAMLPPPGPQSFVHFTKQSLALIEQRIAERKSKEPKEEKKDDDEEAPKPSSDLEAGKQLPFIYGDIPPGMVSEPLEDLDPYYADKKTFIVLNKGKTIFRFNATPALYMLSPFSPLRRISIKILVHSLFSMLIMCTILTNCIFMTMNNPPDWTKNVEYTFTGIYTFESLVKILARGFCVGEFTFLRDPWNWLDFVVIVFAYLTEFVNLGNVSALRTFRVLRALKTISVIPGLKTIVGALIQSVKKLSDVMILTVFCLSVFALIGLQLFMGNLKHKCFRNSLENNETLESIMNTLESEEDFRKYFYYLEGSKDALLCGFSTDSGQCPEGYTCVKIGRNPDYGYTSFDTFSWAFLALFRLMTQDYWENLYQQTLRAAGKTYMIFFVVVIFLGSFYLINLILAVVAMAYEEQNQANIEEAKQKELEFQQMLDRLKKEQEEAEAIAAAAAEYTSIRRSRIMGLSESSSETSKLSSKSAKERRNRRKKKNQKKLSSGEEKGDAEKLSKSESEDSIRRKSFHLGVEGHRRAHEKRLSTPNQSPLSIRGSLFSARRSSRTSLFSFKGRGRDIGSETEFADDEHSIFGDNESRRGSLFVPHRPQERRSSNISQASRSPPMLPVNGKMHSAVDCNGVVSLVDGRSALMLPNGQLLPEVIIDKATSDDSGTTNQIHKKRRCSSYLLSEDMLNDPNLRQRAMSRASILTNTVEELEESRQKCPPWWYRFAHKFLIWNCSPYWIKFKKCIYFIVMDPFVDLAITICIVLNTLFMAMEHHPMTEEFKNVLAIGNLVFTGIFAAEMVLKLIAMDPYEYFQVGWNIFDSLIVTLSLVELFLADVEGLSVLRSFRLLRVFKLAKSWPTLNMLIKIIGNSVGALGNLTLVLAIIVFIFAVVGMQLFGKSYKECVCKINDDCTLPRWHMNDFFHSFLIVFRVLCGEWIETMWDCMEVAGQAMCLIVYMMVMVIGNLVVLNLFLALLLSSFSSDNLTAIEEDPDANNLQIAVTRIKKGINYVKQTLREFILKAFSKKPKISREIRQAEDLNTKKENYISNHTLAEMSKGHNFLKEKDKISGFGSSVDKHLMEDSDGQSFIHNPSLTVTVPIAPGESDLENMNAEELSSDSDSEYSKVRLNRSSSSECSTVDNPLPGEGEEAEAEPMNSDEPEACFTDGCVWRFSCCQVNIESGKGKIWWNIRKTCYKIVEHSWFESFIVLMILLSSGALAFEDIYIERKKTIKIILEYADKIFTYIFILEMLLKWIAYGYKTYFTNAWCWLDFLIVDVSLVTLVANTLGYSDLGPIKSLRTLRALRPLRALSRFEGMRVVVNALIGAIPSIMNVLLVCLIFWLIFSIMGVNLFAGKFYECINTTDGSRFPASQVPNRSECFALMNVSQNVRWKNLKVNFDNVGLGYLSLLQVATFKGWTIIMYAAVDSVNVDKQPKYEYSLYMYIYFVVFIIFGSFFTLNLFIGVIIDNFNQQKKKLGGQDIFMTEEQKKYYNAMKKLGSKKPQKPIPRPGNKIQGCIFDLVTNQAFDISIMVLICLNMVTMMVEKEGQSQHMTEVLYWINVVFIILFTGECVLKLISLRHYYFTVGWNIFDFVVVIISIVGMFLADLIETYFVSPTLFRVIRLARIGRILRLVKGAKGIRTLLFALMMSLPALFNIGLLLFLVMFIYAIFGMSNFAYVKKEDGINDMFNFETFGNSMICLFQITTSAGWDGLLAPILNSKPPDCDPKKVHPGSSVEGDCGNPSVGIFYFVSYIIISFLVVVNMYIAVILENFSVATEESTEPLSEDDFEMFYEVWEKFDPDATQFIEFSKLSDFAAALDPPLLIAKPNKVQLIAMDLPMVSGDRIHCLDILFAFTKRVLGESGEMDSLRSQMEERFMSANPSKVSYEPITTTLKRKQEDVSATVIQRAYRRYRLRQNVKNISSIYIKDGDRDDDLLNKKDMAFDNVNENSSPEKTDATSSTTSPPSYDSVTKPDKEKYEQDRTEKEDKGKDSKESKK
T2 sequence (Q14524 whole entry): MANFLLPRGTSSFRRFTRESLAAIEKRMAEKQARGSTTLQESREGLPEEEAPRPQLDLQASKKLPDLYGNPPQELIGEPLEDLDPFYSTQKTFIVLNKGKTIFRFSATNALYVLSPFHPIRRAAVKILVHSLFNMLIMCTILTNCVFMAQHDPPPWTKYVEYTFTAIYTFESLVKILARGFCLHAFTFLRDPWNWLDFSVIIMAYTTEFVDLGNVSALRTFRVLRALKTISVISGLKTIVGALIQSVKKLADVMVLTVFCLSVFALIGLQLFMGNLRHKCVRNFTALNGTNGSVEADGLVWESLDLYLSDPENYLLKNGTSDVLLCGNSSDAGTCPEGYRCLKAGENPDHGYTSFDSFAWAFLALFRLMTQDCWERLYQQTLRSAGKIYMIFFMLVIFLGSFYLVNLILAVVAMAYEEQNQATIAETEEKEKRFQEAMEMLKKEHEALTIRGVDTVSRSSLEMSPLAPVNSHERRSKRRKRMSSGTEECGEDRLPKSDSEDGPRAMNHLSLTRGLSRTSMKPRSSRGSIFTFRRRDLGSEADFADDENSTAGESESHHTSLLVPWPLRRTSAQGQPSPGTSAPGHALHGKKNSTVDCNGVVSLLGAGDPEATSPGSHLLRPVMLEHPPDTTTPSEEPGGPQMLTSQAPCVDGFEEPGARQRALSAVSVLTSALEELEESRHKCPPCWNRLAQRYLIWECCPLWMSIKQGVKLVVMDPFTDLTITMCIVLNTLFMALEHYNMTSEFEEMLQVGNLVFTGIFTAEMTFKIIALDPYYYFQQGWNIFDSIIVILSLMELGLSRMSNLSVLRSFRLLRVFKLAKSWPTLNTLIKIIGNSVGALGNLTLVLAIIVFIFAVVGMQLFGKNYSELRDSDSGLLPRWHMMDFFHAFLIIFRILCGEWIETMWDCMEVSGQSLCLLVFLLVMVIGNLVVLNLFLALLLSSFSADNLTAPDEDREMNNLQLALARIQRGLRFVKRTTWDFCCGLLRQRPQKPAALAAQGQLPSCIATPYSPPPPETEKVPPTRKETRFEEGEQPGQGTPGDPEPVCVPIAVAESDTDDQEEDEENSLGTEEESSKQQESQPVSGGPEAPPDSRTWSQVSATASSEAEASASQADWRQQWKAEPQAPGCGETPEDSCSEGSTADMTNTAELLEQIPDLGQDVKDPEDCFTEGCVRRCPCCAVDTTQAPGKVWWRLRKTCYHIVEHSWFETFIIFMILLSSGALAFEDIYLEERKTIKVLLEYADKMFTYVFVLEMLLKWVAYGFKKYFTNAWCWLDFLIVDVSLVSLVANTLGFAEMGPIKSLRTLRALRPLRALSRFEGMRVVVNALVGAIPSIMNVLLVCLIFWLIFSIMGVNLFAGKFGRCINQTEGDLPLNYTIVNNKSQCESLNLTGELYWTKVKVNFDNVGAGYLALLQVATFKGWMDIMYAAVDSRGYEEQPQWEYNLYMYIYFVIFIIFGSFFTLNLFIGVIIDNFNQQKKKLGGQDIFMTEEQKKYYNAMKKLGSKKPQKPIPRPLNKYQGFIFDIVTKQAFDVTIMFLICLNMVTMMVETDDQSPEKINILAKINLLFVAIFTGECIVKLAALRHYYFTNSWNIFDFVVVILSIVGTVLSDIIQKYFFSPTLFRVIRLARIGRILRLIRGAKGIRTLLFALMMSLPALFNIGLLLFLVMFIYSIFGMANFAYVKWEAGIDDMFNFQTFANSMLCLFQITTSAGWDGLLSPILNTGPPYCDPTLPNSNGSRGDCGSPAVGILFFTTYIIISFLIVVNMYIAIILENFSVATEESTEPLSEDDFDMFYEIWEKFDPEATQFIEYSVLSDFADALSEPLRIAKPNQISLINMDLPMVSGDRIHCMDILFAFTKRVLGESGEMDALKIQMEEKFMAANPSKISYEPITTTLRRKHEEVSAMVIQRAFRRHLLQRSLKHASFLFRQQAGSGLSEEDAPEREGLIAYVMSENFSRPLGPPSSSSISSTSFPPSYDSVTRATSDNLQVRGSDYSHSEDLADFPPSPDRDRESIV

`CC[C@H](C)[C@H](NC(=O)[C@@H](NC(=O)[C@H](CCCCN)NC(=O)[C@H](CCCNC(=N)N)NC(=O)[C@@H]1CSSC[C@@H]2NC(=O)[C@H](C)NC(=O)[C@H](CCCNC(=N)N)NC(=O)[C@H](CCCCN)NC(=O)[C@H](CO)NC(=O)[C@H](CC(=O)O)NC(=O)[C@@H]3CSSC[C@H](NC(=O)[C@H](CC(=O)O)NC(=O)[C@H](CC(C)C)NC(=O)CNC(=O)[C@H](CCC(=O)O)NC(=O)[C@H](CSSC[C@H](NC(=O)[C@@H](N)Cc4ccc(O)cc4)C(=O)N[C@@H](CCC(N)=O)C(=O)N[C@@H](CCCCN)C(=O)N[C@@H](Cc4c[nH]c5ccccc45)C(=O)N[C@@H](CCSC)C(=O)N[C@@H](Cc4c[nH]c5ccccc45)C(=O)N[C@@H]([C@@H](C)O)C(=O)N3)NC2=O)C(=O)N[C@@H](CCCCN)C(=O)N[C@@H](CC(C)C)C(=O)N[C@@H](Cc2c[nH]c3ccccc23)C(=O)N1)[C@@H](C)CC)C(N)=O` [compound 115]: the IC50 at hNav1.7 [1] is 0.09 µM; at hNav1.5 [2] it was 11.1 µM; on hNav1.4 [3], greater than 5 µM; on hNav1.3 it was greater than 5 µM; at hNav1.7 [4], 0.749 µM; on hNav1.4 [5], 7.6 µM. Further, the IC50 at hNav1.5 [6] was 3.2 µM. Besides, the figures for the Nav1.4/Nav1.7 at hNav1.4 [3] and at hNav1.4 [5] were 53 and 10, respectively. In addition, the Nav1.5/Nav1.7 on hNav1.5 [6] (ratio of PX IC50 values) stood at 4.
Turning to `CC[C@H](C)[C@H](NC(=O)[C@@H](NC(=O)[C@H](CCCCN)NC(=O)[C@H](CCCNC(=N)N)NC(=O)[C@@H]1CSSC[C@@H]2NC(=O)[C@H](C)NC(=O)[C@H](CCCNC(=N)N)NC(=O)[C@H](CCCCN)NC(=O)[C@H](CO)NC(=O)[C@H](CC(=O)O)NC(=O)[C@@H]3CSSC[C@H](NC(=O)CNC(=O)[C@H](CC(C)C)NC(=O)CNC(=O)[C@H](CCC(=O)O)NC(=O)[C@H](CSSC[C@H](NC(=O)[C@@H](N)Cc4ccc(O)cc4)C(=O)N[C@@H](CCC(N)=O)C(=O)N[C@@H](CCCCN)C(=O)N[C@@H](Cc4c[nH]c5ccccc45)C(=O)N[C@@H](CCSC)C(=O)N[C@@H](Cc4c[nH]c5ccccc45)C(=O)N[C@@H]([C@@H](C)O)C(=O)N3)NC2=O)C(=O)N[C@@H](CCCCN)C(=O)N[C@@H](CC(C)C)C(=O)N[C@@H](Cc2c[nH]c3ccccc23)C(=O)N1)[C@@H](C)CC)C(N)=O` [compound 121], the IC50 was 0.06 µM on hNav1.7 [1]; 9.8 µM on hNav1.5 [2]; 1.9 µM at hNav1.4 [3]; 0.98 µM on hNav1.3; 0.0078 µM at hNav1.7 [4]; 0.197 µM on hNav1.4 [5]. For the same compound, the IC50 at hNav1.5 [6] turned out to be 14.1 µM. Also, the results for the Nav1.4/Nav1.7 at hNav1.4 [3] and on hNav1.4 [5] were 29 and 25, respectively.
Turning to `CC[C@H](C)[C@H](NC(=O)[C@@H](NC(=O)[C@H](CCCCN)NC(=O)[C@H](CCCNC(=N)N)NC(=O)[C@@H]1CSSC[C@@H]2NC(=O)[C@H](C)NC(=O)[C@H](CCCNC(=N)N)NC(=O)[C@H](CCCCN)NC(=O)[C@H](CO)NC(=O)[C@H](CC(=O)O)NC(=O)[C@@H]3CSSC[C@H](NC(=O)[C@H](Cc4ccc(O)cc4)NC(=O)[C@H](CC(C)C)NC(=O)CNC(=O)[C@H](CCC(=O)O)NC(=O)[C@H](CSSC[C@H](NC(=O)[C@@H](N)Cc4ccc(O)cc4)C(=O)N[C@@H](CCC(N)=O)C(=O)N[C@@H](CCCCN)C(=O)N[C@@H](Cc4c[nH]c5ccccc45)C(=O)N[C@@H](CCSC)C(=O)N[C@@H](Cc4c[nH]c5ccccc45)C(=O)N[C@@H]([C@@H](C)O)C(=O)N3)NC2=O)C(=O)N[C@@H](CCCCN)C(=O)N[C@@H](CC(C)C)C(=O)N[C@@H](Cc2c[nH]c3ccccc23)C(=O)N1)[C@@H](C)CC)C(N)=O` [compound 124], the IC50 at hNav1.7 [1] is 0.09 µM; at hNav1.5 [2] it was 10.8 µM; on hNav1.4 [3], 4 µM; at hNav1.3, greater than 5 µM; at hNav1.7 [4], 0.0059 µM; at hNav1.4 [5], 1.57 µM. The IC50 on hNav1.5 [6] is greater than 10 µM. Besides, the Nav1.4/Nav1.7 on hNav1.4 [3] is 43.
Regarding `CC[C@H](C)[C@H](NC(=O)[C@@H](NC(=O)[C@H](CCCCN)NC(=O)[C@H](CCCNC(=N)N)NC(=O)[C@@H]1CSSC[C@@H]2NC(=O)[C@H](C)NC(=O)[C@H](CCCNC(=N)N)NC(=O)[C@H](CCCCN)NC(=O)[C@H](CO)NC(=O)[C@H](CC(=O)O)NC(=O)[C@@H]3CSSC[C@H](NC(=O)[C@H](CCC(=O)O)NC(=O)[C@H](CC(C)C)NC(=O)CNC(=O)[C@H](CCC(=O)O)NC(=O)[C@H](CSSC[C@H](NC(=O)[C@@H](N)Cc4ccc(O)cc4)C(=O)N[C@@H](CCC(N)=O)C(=O)N[C@@H](CCCCN)C(=O)N[C@@H](Cc4c[nH]c5ccccc45)C(=O)N[C@@H](CCSC)C(=O)N[C@@H](Cc4c[nH]c5ccccc45)C(=O)N[C@@H]([C@@H](C)O)C(=O)N3)NC2=O)C(=O)N[C@@H](CCCCN)C(=O)N[C@@H](CC(C)C)C(=O)N[C@@H](Cc2c[nH]c3ccccc23)C(=O)N1)C(C)C)C(N)=O` [compound 133], the IC50 came to 0.08 µM at hNav1.7 [1]; 12 µM on hNav1.5 [2]; 4 µM on hNav1.4 [3]; 4.85 µM on hNav1.3; 0.0041 µM at hNav1.7 [4]; 1.31 µM on hNav1.4 [5]. The IC50 on hNav1.5 [6] worked out at 5.5 µM. The Nav1.4/Nav1.7 was found to be 51 on hNav1.4 [3] and 320 at hNav1.4 [5].
Turning to `CC[C@H](C)[C@H](NC(=O)[C@H](CCCNC(N)=O)NC(=O)[C@H](CCCCN)NC(=O)[C@H](CCCNC(=N)N)NC(=O)[C@@H]1CSSC[C@@H]2NC(=O)[C@H](C)NC(=O)[C@H](CCCNC(=N)N)NC(=O)[C@H](CCCCN)NC(=O)[C@H](CO)NC(=O)[C@H](CC(=O)O)NC(=O)[C@@H]3CSSC[C@H](NC(=O)[C@H](CCC(=O)O)NC(=O)[C@H](CC(C)C)NC(=O)CNC(=O)[C@H](CCC(=O)O)NC(=O)[C@H](CSSC[C@H](NC(=O)[C@@H](N)Cc4ccc(O)cc4)C(=O)N[C@@H](CCC(N)=O)C(=O)N[C@@H](CCCCN)C(=O)N[C@@H](Cc4c[nH]c5ccccc45)C(=O)N[C@@H](CCSC)C(=O)N[C@@H](Cc4c[nH]c5ccccc45)C(=O)N[C@@H]([C@@H](C)O)C(=O)N3)NC2=O)C(=O)N[C@@H](CCCCN)C(=O)N[C@@H](CC(C)C)C(=O)N[C@@H](Cc2c[nH]c3ccccc23)C(=O)N1)C(N)=O` [compound 135], the IC50 on hNav1.7 [1] is 0.11 µM; on hNav1.5 [2] it was 12 µM; at hNav1.4 [3], greater than 5 µM; at hNav1.3 it was greater than 5 µM; at hNav1.7 [4], 0.0056 µM; at hNav1.4 [5], 6.02 µM. Further, the IC50 at hNav1.5 [6] was greater than 10 µM. For the same compound, the Nav1.4/Nav1.7 at hNav1.4 [3] is recorded as 46.
As for `CCC[C@H](NC(=O)[C@H](CCCCN)NC(=O)[C@H](CCCNC(=N)N)NC(=O)[C@@H]1CSSC[C@@H]2NC(=O)[C@H](C)NC(=O)[C@H](CCCNC(=N)N)NC(=O)[C@H](CCCCN)NC(=O)[C@H](CO)NC(=O)[C@H](CC(=O)O)NC(=O)[C@@H]3CSSC[C@H](NC(=O)[C@H](CCC(=O)O)NC(=O)[C@H](CC(C)C)NC(=O)CNC(=O)[C@H](CCC(=O)O)NC(=O)[C@H](CSSC[C@H](NC(=O)[C@@H](N)Cc4ccc(O)cc4)C(=O)N[C@@H](CCC(N)=O)C(=O)N[C@@H](CCCCN)C(=O)N[C@@H](Cc4c[nH]c5ccccc45)C(=O)N[C@@H](CCSC)C(=O)N[C@@H](Cc4c[nH]c5ccccc45)C(=O)N[C@@H]([C@@H](C)O)C(=O)N3)NC2=O)C(=O)N[C@@H](CCCCN)C(=O)N[C@@H](CC(C)C)C(=O)N[C@@H](Cc2c[nH]c3ccccc23)C(=O)N1)C(=O)N[C@H](C(N)=O)[C@@H](C)CC` [compound 136], the IC50 on hNav1.7 [1] is 0.08 µM and 0.15 µM; at hNav1.5 [2], 8.9 µM and 15.8 µM; at hNav1.4 [3], greater than 5 µM; on hNav1.3, greater than 5 µM; at hNav1.7 [4] it was 0.0128 µM; on hNav1.4 [5], 5.19 µM. In addition, the IC50 at hNav1.5 [6] was determined as 7.82 µM. Also, the Nav1.4/Nav1.7 on hNav1.4 [3] is 66 and 34.
Consider `CC[C@H](C)[C@H](NC(=O)[C@H](Cc1ccc(O)cc1)NC(=O)[C@H](CCCCN)NC(=O)[C@H](CCCNC(=N)N)NC(=O)[C@@H]1CSSC[C@@H]2NC(=O)[C@H](C)NC(=O)[C@H](CCCNC(=N)N)NC(=O)[C@H](CCCCN)NC(=O)[C@H](CO)NC(=O)[C@H](CC(=O)O)NC(=O)[C@@H]3CSSC[C@H](NC(=O)[C@H](CCC(=O)O)NC(=O)[C@H](CC(C)C)NC(=O)CNC(=O)[C@H](CCC(=O)O)NC(=O)[C@H](CSSC[C@H](NC(=O)[C@@H](N)Cc4ccc(O)cc4)C(=O)N[C@@H](CCC(N)=O)C(=O)N[C@@H](CCCCN)C(=O)N[C@@H](Cc4c[nH]c5ccccc45)C(=O)N[C@@H](CCSC)C(=O)N[C@@H](Cc4c[nH]c5ccccc45)C(=O)N[C@@H]([C@@H](C)O)C(=O)N3)NC2=O)C(=O)N[C@@H](CCCCN)C(=O)N[C@@H](CC(C)C)C(=O)N[C@@H](Cc2c[nH]c3ccccc23)C(=O)N1)C(N)=O` [compound 137], for which the IC50 on hNav1.7 [1] is 0.09 µM; at hNav1.5 [2], 8 µM; on hNav1.4 [3] it was greater than 3.5 µM; on hNav1.3 it was 2.01 µM; at hNav1.7 [4], 0.0009 µM; at hNav1.4 [5], 1.27 µM. For the same compound, the IC50 on hNav1.5 [6] stood at 11.4 µM. Also, the Nav1.4/Nav1.7 at hNav1.4 [3] is on record as 41.

For orientation: IC50 means the concentration at which inhibition is half-maximal.

For the origin of these results see patent publication US9636418B2 (priority 2013, dated 2017).
